Here are results for twelve compounds from ChEMBL document CHEMBL1123967, “New potent antagonists of leukotrienes C4 and D4. 1. Synthesis and structure-activity relationships” (J Med Chem, 1988).

The structures appear in SMILES notation.

The subject of experiment [1] is Cavia porcellus. Nature of the experiment: Inhibition of LTD4 (5 ng/site) induced vascular permeability in guinea pig skin at dose 10 mg/kg given perorally. Type of experiment: functional. Particulars: route oral.
Experiment [2] addresses T1, Cysteinyl leukotriene receptor (Homo sapiens, UniProt Q9Y271+Q9NS75).
T1 sequence (Q9Y271 whole entry): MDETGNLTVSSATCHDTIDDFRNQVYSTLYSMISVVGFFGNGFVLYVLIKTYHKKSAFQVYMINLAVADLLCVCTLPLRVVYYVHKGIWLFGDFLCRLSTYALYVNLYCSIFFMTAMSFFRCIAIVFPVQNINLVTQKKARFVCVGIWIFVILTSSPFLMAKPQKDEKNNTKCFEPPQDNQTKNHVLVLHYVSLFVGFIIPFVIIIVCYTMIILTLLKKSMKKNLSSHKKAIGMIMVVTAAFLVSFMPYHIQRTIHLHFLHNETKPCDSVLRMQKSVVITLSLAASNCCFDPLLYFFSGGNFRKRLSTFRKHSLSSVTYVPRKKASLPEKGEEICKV
T1 sequence (Q9NS75 whole entry): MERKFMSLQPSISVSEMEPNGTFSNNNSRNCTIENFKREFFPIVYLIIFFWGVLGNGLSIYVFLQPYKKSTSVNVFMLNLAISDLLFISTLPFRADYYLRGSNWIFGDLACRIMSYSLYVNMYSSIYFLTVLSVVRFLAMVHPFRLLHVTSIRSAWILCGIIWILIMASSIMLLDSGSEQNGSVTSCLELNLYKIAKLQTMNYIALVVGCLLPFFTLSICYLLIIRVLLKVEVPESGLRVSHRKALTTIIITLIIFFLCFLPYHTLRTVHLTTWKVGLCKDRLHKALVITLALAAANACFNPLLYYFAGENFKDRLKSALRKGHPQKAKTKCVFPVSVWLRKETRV
Kind of experiment: Inhibition of LTC4 induced smooth muscle contraction of guinea pig ileum. In kind it is functional, tissue-based, Cavia porcellus. Particulars: target entry is the homologue from another species.

Experiment [3] relates to Cavia porcellus. Nature of the experiment: Inhibition of LTD4 (5 ng/site) induced vascular permeability in guinea pig skin at dose 1 mg/kg given perorally. In kind it is functional. Particulars: route oral.
Experiment [4] deals with Cysteinyl leukotriene receptor (Homo sapiens) (UniProt Q9Y271+Q9NS75). Kind of experiment: In vivo inhibition of LTD4-induced bronchoconstriction in anesthetized guinea pig. Type of experiment: functional, organism-based. Particulars: Cavia porcellus; target entry is the homologue from another species.
The subject of experiment [5] is Cavia porcellus. Kind of experiment: Inhibition of LTD4 (5 ng/site) induced vascular permeability in guinea pig skin at dose 0.3 mg/kg given perorally. Particulars: route oral. Type of experiment: functional.
In experiment [6] the test system is Cavia porcellus. Nature of the experiment: Inhibition of LTB4 induced bronchoconstriction in guinea pig at dose of 3 ug/kg given intravenously. Type of experiment: functional. Particulars: iv, read-out: ID50 (the source's name).
The test system of experiment [7] is Cavia porcellus. Kind of experiment: Inhibition of LTC4-induced bronchoconstriction in guinea pig at dose of (0.5 ug/kg) given intravenously. Particulars: iv, read-out: ID50 (the source's name). In kind it is functional.
The test system of experiment [8] is Cavia porcellus. Kind of experiment: Inhibition of LTD4-induced bronchoconstriction in guinea pig in guinea pig at dose of (0.5 ug/kg) given intravenously. In kind it is functional. Particulars: iv, read-out: ID50 (the source's name).
The subject of experiment [9] is Cavia porcellus. Nature of the experiment: Inhibition of LTE4-induced bronchoconstriction in guinea pig at dose of (1 ug/kg) given intravenously. Type of experiment: functional. Particulars: iv, read-out: ID50 (the source's name).
Experiment [10] relates to Cavia porcellus. Nature of the experiment: Inhibition of LTD4 (5 ng/site) induced vascular permeability in guinea pig skin at dose 30 mg/kg given perorally. In kind it is functional. Particulars: route oral.
Experiment [11] relates to Cavia porcellus. Nature of the experiment: Inhibition of LTC4 induced bronchoconstriction in guinea pig at dose of (0.5 ug/kg) given intravenously. In kind it is functional. Particulars: iv, read-out: ID50 (the source's name).
In experiment [12] the test system is Cavia porcellus. Kind of experiment: Inhibition of LTD4 induced bronchoconstriction in guinea pig at dose of (0.5 ug/kg) given intravenously. Type of experiment: functional. Particulars: iv, read-out: ID50 (the source's name).
Experiment [13] has as its system Cavia porcellus. Nature of the experiment: Inhibition of LTE4 induced bronchoconstriction in guinea pig at dose of 1 ug/kg given intravenously. In kind it is functional. Particulars: iv, read-out: ID50 (the source's name).
The test system of experiment [14] is Cavia porcellus. Kind of experiment: Inhibition of LTB4 induced bronchoconstriction in guinea pig at dose of (1 ug/kg) given intravenously. In kind it is functional. Particulars: iv, read-out: ID50 (the source's name).
The subject of experiment [15] is Cavia porcellus. Nature of the experiment: Inhibition of LTD4-induced bronchoconstriction in guinea pig at dose of (0.5 ug/kg) given intravenously. Type of experiment: functional. Particulars: iv, read-out: ID50 (the source's name).

As usually defined, the inhibition in vivo is how much of the control response was suppressed. For orientation: IC50 means the concentration that inhibits the measured activity by half. Higher therefore signals weaker potency. Consider `CCCCCCCOc1ccc(C(=O)Nc2cccc3c2OC(c2nnn[nH]2)CO3)cc1` (stereo not given), for which the inhibition in vivo at 10 mg/kg in the experiment with Cavia porcellus [1] was under 46.7%. Moreover, the IC50 in experiment [2] is listed as 9 nM.
Take `CCCCC/C=C/COc1ccc(C(=O)Nc2cccc3c(=O)cc(-c4nn[nH]n4)oc23)cc1`: in the experiment with Cavia porcellus [3], at 1 mg/kg the inhibition in vivo was 25%. Also, the ID50 in experiment [4] worked out at 0.72 µg/kg. This compound came in with an IC50 in [2] of 0.06 nM.
The compound `O=C(Nc1cccc2c(=O)cc(-c3nnn[nH]3)oc12)c1ccc(OCCCCc2ccccc2)cc1` showed an inhibition in vivo at 0.3 mg/kg with Cavia porcellus [5] of 74.7%. Further, in the experiment with Cavia porcellus [3], 1 mg/kg produced 75.2% inhibition in vivo. In experiment [4], the ID50 amounted to 0.8 µg/kg. Further, the ED50 with Cavia porcellus [6] is over 500 µg/kg; with Cavia porcellus [7], 0.8 µg/kg; in the experiment with Cavia porcellus [8], 1 µg/kg; in the experiment on Cavia porcellus [9], 0.7 µg/kg.
In the experiment with Cavia porcellus [5], `C=CCCCCCCOc1ccc(C(=O)Nc2cccc3c(=O)cc(-c4nn[nH]n4)oc23)cc1` displayed an inhibition in vivo at 0.3 mg/kg of under 46.7%. In the experiment on Cavia porcellus [3], this compound returned an inhibition in vivo at 1 mg/kg of under 60.7%. Also, in experiment [4], the ID50 was 1.9 µg/kg. The IC50 in experiment [2] is listed as 0.11 nM.
Consider `C=CCCC/C=C/COc1ccc(C(=O)Nc2cccc3c2OC(c2nnn[nH]2)CO3)cc1` (stereo not given), for which, in the experiment on Cavia porcellus [1], at 10 mg/kg the inhibition in vivo was 2.9%. The compound also showed an IC50 in experiment [2] of 1.1 nM.
In the experiment on Cavia porcellus [1], `O=C(Nc1cccc2c1OC(c1nnn[nH]1)CO2)c1ccc(OCCCCc2ccccc2)cc1` (stereo not given) displayed an inhibition in vivo at 10 mg/kg of 61.8%. In the experiment with Cavia porcellus [10], this compound gave an inhibition in vivo at 30 mg/kg of 63.2%. Further, in experiment [4], the ID50 came out at 1.2 µg/kg. In addition, the IC50 in experiment [2] is given as 0.37 nM. In addition, the ED50 with Cavia porcellus [6] is over 500 µg/kg; in the experiment with Cavia porcellus [11], 1.1 µg/kg; with Cavia porcellus [12] it was 4.4 µg/kg; in the experiment on Cavia porcellus [13] it was 2 µg/kg.
In the case of `C=CCCCCCCOc1ccc(C(=O)Nc2cccc3c2OC(c2nnn[nH]2)CO3)cc1` (stereo not given), the inhibition in vivo at 10 mg/kg in the experiment with Cavia porcellus [1] was under 75.2%. This compound also registered an ID50 in [4] of 1.7 µg/kg. In experiment [2], this compound yielded an IC50 of 1.3 nM.
As to `CCCC/C=C/COc1ccc(C(=O)Nc2cccc3c(=O)cc(-c4nn[nH]n4)oc23)cc1`, the ID50 in experiment [4] turned out to be 1.1 µg/kg. The same compound had an IC50 in experiment [2] of 0.031 nM.
As for `C=CCCC/C=C/COc1ccc(C(=O)Nc2cccc3c(=O)cc(-c4nn[nH]n4)oc23)cc1`, the inhibition in vivo at 0.3 mg/kg with Cavia porcellus [5] was under 44.6%. The ID50 in [4] came to 1.2 µg/kg. This compound also displayed an IC50 in experiment [2] of 0.16 nM.
For `CCCCC/C=C/COc1ccc(C(=O)Nc2cccc3c2OC(c2nnn[nH]2)CO3)cc1` (stereo not given), 10 mg/kg produced 30.4% inhibition in vivo in the experiment with Cavia porcellus [1]. Further, the inhibition in vivo at 30 mg/kg in the experiment on Cavia porcellus [10] is under 43.8%. For the same compound, in experiment [4], the ID50 is 2 µg/kg. In addition, the IC50 in [2] was 2 nM.
In the case of `CCCC/C=C/COc1ccc(C(=O)Nc2cccc3c2OC(c2nnn[nH]2)CO3)cc1` (stereo not given), the ID50 in [4] was determined as 5.5 µg/kg. The same compound gave an IC50 in [2] of 0.47 nM.
The compound `CCCc1c(OCC(O)COc2ccc3c(=O)cc(C(=O)[O-])oc3c2CCC)ccc(C(C)=O)c1O.[Na+]` (stereo not given) [FPL-55712 SODIUM SALT] had an ID50 in experiment [4] of 500 µg/kg. Also, the ED50 was over 500 µg/kg in the experiment with Cavia porcellus [14], 155 µg/kg in the experiment with Cavia porcellus [7], 440 µg/kg with Cavia porcellus [15] and 211 µg/kg in the experiment on Cavia porcellus [9].
